# From patent US20080096848A1, “Substituted N-Aryl-9-Oxo-9H-Fluorene-1-Carboxamides and Analogs as Activators of Caspases and Inducers of Apoptosis” (CYTOVIA INC., priority 2004, published 2008)
# Where two headings read alike, the source gives them in different places.
# Test system: T-47D
# Test: Caspase cascade activation assay (Ac-DEVD-R110 fluorogenic substrate) in T-47D cells
# Type: cell-based, Human
# Conditions: 24 h incubation; for Caspase activity (Ratio): ratio of net RFU (T=3 h) of test compound to control, 0.16 to 10 μM final; for EC50: sigmoidal dose-response, read-out: Caspase potency EC50
# Procedure: Human breast cancer cell lines T-47D was grown according to media component mixtures designated by American Type Culture Collection+10% FCS (Invitrogen Corporation), in a 5% CO2-95% humidity incubator at 37° C. T-47D and ZR-75-1 cells were maintained at a cell density between 30 and 80% confluency and for HL-60 at a cell density of 0.1 to 0.6×10^6 cells/mL. Cells were harvested at 600×g and resuspended at 0.65×10^6 cells/mL into appropriate media+10% FCS. An aliquot of 45 μL of cells was added to a well of a 96-well microtiter plate containing 5 μL of a 10% DMSO in RPMI-1640 media solution containing 1.6 to 100 μM of N-(2-methylphenyl)-9-oxo-9H-fluorene-1-carboxamide or other test compound (0.16 to 10 μM final). An aliquot of 45 μL of cells was added to a well of a 96-well microtiter plate containing 5 μL of a 10% DMSO in RPMI-1640 media solution without test compound as the control sample. The samples were mixed by agitation and then incubated at 37° C. for 24 h in a 5% CO2-95% humidity incubator. After incubation, the samples were removed from the incubator and 50 μL of a solution containing 20 μM of N—(Ac-DEVD)-N′-ethoxycarbonyl-R110 fluorogenic substrate (SEQ ID NO:1) (Cytovia, Inc.; U.S. Pat. No. 6,335,429), 20% sucrose (Sigma), 20 mM DTT (Sigma), 200 mM NaCl (Sigma), 40 mM Na PIPES buffer pH 7.2 (Sigma), and 500 μg/mL lysolecithin (Calbiochem) was added. The samples were mixed by agitation and incubated at room temperature. Using a fluorescent plate reader (Model 1420 Wallac Instruments), an initial reading (T=0) was made about 1-2 min after addition of the substrate solution, employing excitation at 485 nm and emission at 530 nm, to determine the background fluorescence of the control sample. After about 3 h of incubation, the samples were read for fluorescence as above (T=3 h).
# The Relative Fluorescence Unit values (RFU) were used to calculate the sample readings as follows: RFU(T=3h)−Control RFU(T=0)=Net RFU(T=3h)
# The activity of caspase cascade activation was determined by the ratio of the net RFU value for N-(2-methylphenyl)-9-oxo-9H-fluorene-1-carboxamide and other test compounds to that of control samples. The EC50 (nM) was determined by a sigmoidal dose-response calculation (Prism 2.0, GraphPad Software Inc.).
smiles,measurement,setting,value
"O=C(Nc1ccccc1N1CCOCC1)c1cccc2c1C(=O)c1ccccc1-2 [Example 1, N-(2-Morpholinophenyl)-9-oxo-9H-fluorene-1-carboxamide]",Caspase activity (Ratio),,3.1
same,EC50,"Homo sapiens, T47D, 24 h",5.67 µM
"O=C(Nc1ccccc1-n1cccc1)c1cccc2c1C(=O)c1ccccc1-2 [Example 2, N-(2-(1H-Pyrrolo-1-yl)-phenyl)-9-oxo-9H-fluorene-1-carboxamide]",Caspase activity (Ratio),,4.2
same,EC50,,2.23 µM
"O=C(Nc1ccccc1N1CCCCC1)c1cccc2c1C(=O)c1ccccc1-2 [Example 3, 9-Oxo-N-(2-(piperidin-1-yl)-phenyl)-9H-fluorene-1-carboxamide]",Caspase activity (Ratio),,7.4
same,EC50,"Homo sapiens, T47D, 24 h",1.92 µM
"O=C(Nc1ccccc1-n1ccnc1)c1cccc2c1C(=O)c1ccccc1-2 [Example 4, N-(2-(1H-Imidazol-1-yl)-phenyl)-9-oxo-9H-fluorene-1-carboxamide]",Caspase activity (Ratio),,1.4
same,EC50,"Homo sapiens, T47D, 24 h",> 10 µM
"O=C(Nc1ccccn1)c1cccc2c1C(=O)c1ccccc1-2 [Example 5, 9-Oxo-N-(pyridin-2-yl)-9H-fluorene-1-carboxamide]",Caspase activity (Ratio),,1.2
same,EC50,"Homo sapiens, T47D, 24 h",> 10 µM
"O=C(Nc1ccccc1)c1cccc2c1C(=O)c1ccccc1-2 [Example 6, 9-Oxo-N-phenyl-9H-fluorene-1-carboxamide]",Caspase activity (Ratio),,1.9
same,EC50,"Homo sapiens, T47D, 24 h",> 10 µM
"Cc1cccc(C)c1NC(=O)c1cccc2c1C(=O)c1ccccc1-2 [Example 7, N-(2,6-Dimethylphenyl)-9-oxo-9H-fluorene-1-carboxamide]",Caspase activity (Ratio),,1.4
same,EC50,"Homo sapiens, T47D, 24 h",> 10 µM
"O=C(Nc1ccccc1-c1nnn[nH]1)c1cccc2c1C(=O)c1ccccc1-2 [Example 8, N-(2-(1H-tetrazol-5-yl)phenyl)-9-oxo-9H-fluorene-1-carboxamide]",Caspase activity (Ratio),,1.1
same,EC50,"Homo sapiens, T47D, 24 h",> 10 µM
"Cc1cccnc1NC(=O)c1cccc2c1C(=O)c1ccccc1-2 [Example 11, N-(3-Methylpyridin-2-yl)-9-Oxo-9H-fluorene-1-carboxamide]",Caspase activity (Ratio),,1.2
same,EC50,"Homo sapiens, T47D, 24 h",> 10 µM
"O=C(Nc1ccccc1CBr)c1cccc2c1C(=O)c1ccccc1-2 [Example 14, N-(2-Bromomethylphenyl)-9-oxo-9H-fluorene-1-carboxamide]",Caspase activity (Ratio),,5.7
same,EC50,"Homo sapiens, T47D, 24 h",2.88 µM
"O=C(Nc1ccccc1-n1cccn1)c1cccc2c3c([nH]c12)CCCC3 [Example 16, N-(2-(1H-pyrazol-1-yl)phenyl)-6,7,8,9-tetrahydro-5H-carbazole-1-carboxamide]",Caspase activity (Ratio),,0.8
same,EC50,"Homo sapiens, T47D, 24 h",> 10 µM
"Cc1ccccc1N(C)C(=O)c1cccc2c1C(=O)c1ccccc1-2 [Example 17, N-Methyl-N-(2-methylphenyl)-9-oxo-9H-fluorene-1-carboxamide]",Caspase activity (Ratio),,1.4
same,EC50,"Homo sapiens, T47D, 24 h",> 10 µM
"CC1CCCCC1NC(=O)c1cccc2c1C(=O)c1ccccc1-2 (stereo not drawn) [Example 18, N-(2-Methylcyclohexyl)-9-oxo-9H-fluorene-1-carboxamide]",Caspase activity (Ratio),,1.8
same,EC50,"Homo sapiens, T47D, 24 h",> 10 µM
"O=C(Nc1ccccc1-n1cccn1)c1cccc2c1OCC2 [Example 19, N-(2-(1H-pyrazol-1-yl)phenyl)-2,3-dihydrobenzofuran-7-carboxamide]",Caspase activity (Ratio),,0.9
same,EC50,"Homo sapiens, T47D, 24 h",> 10 µM
"Cc1ccncc1NC(=O)c1cccc2c1C(=O)c1ccccc1-2 [Example 21, N-(4-Methylpyridin-3-yl)-9-oxo-9H-fluorene-1-carboxamide]",Caspase activity (Ratio),,0.8
same,EC50,"Homo sapiens, T47D, 24 h",> 10 µM
"CN1CCN(Cc2ccccc2NC(=O)c2cccc3c2C(=O)c2ccccc2-3)CC1 [Example 22, N-(2-(4-Methylpiperazin-1-yl-methyl)phenyl)-9-oxo-9H-fluorene-1-carboxamide]",Caspase activity (Ratio),,1.0
same,EC50,"Homo sapiens, T47D, 24 h",> 10 µM
"O=C(Nc1ccccc1-n1cccn1)c1cccc2oc3ccccc3c12 [Example 23, N-(2-(1H-pyrazol-1-yl)phenyl)-dibenzofuran-1-carboxamide]",Caspase activity (Ratio),,1.1
same,EC50,"Homo sapiens, T47D, 24 h",> 10 µM
"CN(C)Cc1ccccc1NC(=O)c1cccc2c1C(=O)c1ccccc1-2.Cl [Example 24, N-(2-Dimethylaminomethyl-phenyl)-9-oxo-9H-fluorene-1-carboxamide Hydrochloride]",Caspase activity (Ratio),,1.8
same,EC50,Hydrochloride,> 10 µM
"O=C(Nc1ccccc1[N+](=O)[O-])c1cccc2c1C(=O)c1ccccc1-2 [Example 25, N-(2-Nitrophenyl)-9-oxo-9H-fluorene-1-carboxamide]",Caspase activity (Ratio),,2.2
same,EC50,"Homo sapiens, T47D, 24 h",2.51 µM
"Nc1ccccc1NC(=O)c1cccc2c1C(=O)c1ccccc1-2 [Example 26, N-(2-Amino-phenyl)-9-oxo-9H-fluorene-1-carboxamide]",Caspase activity (Ratio),,1.2
same,EC50,"Homo sapiens, T47D, 24 h",> 10 µM
"Nc1ccc2c(c1)C(=O)c1c(C(=O)Nc3ccccc3-n3cccn3)cccc1-2 [Example 30, 7-Amino-N-(2-(1H-pyrazol-1-yl)phenyl)-9-oxo-9H-fluorene-1-carboxamide]",Caspase activity (Ratio),,4.4
same,EC50,"Homo sapiens, T47D, 24 h",0.881 µM
"O=C(Nc1ccccc1-n1cccn1)c1ccc([N+](=O)[O-])c2c1C(=O)c1cc([N+](=O)[O-])ccc1-2 [Example 31, 4,7-Dinitro-N-(2-(1H-pyrazol-1-yl)phenyl)-9-oxo-9H-fluorene-1-carboxamide]",Caspase activity (Ratio),,2.3
same,EC50,"Homo sapiens, T47D, 24 h",6.05 µM
"O=C(Nc1ccccc1-n1cccn1)c1cccc2c1-c1ccccc1S2(=O)=O [Example 33, 9,9-Dioxo-N-(2-(1H-pyrazol-1-yl)phenyl)-dibenzothiophene-1-carboxamide]",Caspase activity (Ratio),,1.6
same,EC50,,> 10 µM
"O=C(Nc1ccccc1-n1cccn1)c1cccc2sc3c(c12)C(=O)CC=C3 [Example 34, 9-Oxo-N-(2-(1H-pyrazol-1-yl)phenyl)-dibenzothiophene-1-carboxamide]",Caspase activity (Ratio),,1.2
same,EC50,"Homo sapiens, T47D, 24 h",> 10 µM
"O=C(Nc1ccccc1O)c1cccc2c1C(=O)c1ccccc1-2 [Example 35, N-(2-Hydroxy-phenyl)-9-oxo-9H-fluorene-1-carboxamide]",Caspase activity (Ratio),,1.3
same,EC50,"Homo sapiens, T47D, 24 h",> 10 µM
"Cc1ccccc1NC(=O)c1cccc2c1C(O)c1ccccc1-2 (stereo not drawn) [Example 36, 9-Hydroxy-N-(2-methylphenyl)-9H-fluorene-1-carboxamide]",Caspase activity (Ratio),,3.3
same,EC50,"Homo sapiens, T47D, 24 h",3.7 µM
O=C(Nc1cccc2ccccc12)c1cccc2c1C(=O)c1ccccc1-2 [N-(1-Naphthalen-1-yl)-9-oxo-9H-fluorene-1-carboxamide],Caspase activity (Ratio),,3.2
same,EC50,,6 µM
COC(=O)c1ccccc1NC(=O)c1cccc2c1C(=O)c1ccccc1-2 [N-(2-(Methoxycarbonyl)phenyl)-9-oxo-9H-fluorene-1-carboxamide],Caspase activity (Ratio),,7.1
same,EC50,"Homo sapiens, T47D, 24 h",0.419 µM
O=C(Nc1ccccc1Br)c1cccc2c1C(=O)c1ccccc1-2 [N-(2-Bromophenyl)-9-oxo-9H-fluorene-1-carboxamide],Caspase activity (Ratio),,9.1
same,EC50,"Homo sapiens, T47D, 24 h",3.52 µM
O=C(Nc1ccccc1Cl)c1cccc2c1C(=O)c1ccccc1-2 [N-(2-Cholorophenyl)-9-oxo-9H-fluorene-1-carboxamide],Caspase activity (Ratio),,7.4
same,EC50,,1.05 µM
N#Cc1ccccc1NC(=O)c1cccc2c1C(=O)c1ccccc1-2 [N-(2-Cyanophenyl)-9-oxo-9H-fluorene-1-carboxamide],Caspase activity (Ratio),,2.3
same,EC50,"Homo sapiens, T47D, 24 h",2 µM
O=C(Nc1ccccc1OC(F)F)c1cccc2c1C(=O)c1ccccc1-2 [N-(2-Difluoromethoxyphenyl)-9-oxo-9H-fluorene-1-carboxamide],Caspase activity (Ratio),,5.9
same,EC50,"Homo sapiens, T47D, 24 h",0.688 µM
CCOc1ccccc1NC(=O)c1cccc2c1C(=O)c1ccccc1-2 [N-(2-Ethoxyphenyl)-9-oxo-9H-fluorene-1-carboxamide],Caspase activity (Ratio),,8.2
same,EC50,"Homo sapiens, T47D, 24 h",2.07 µM
O=C(Nc1ccccc1F)c1cccc2c1C(=O)c1ccccc1-2 [N-(2-Fluorophenyl)-9-oxo-9H-fluorene-1-carboxamide],Caspase activity (Ratio),,5.7
same,EC50,"Homo sapiens, T47D, 24 h",1.96 µM
O=C(Nc1ccccc1-c1ccccc1)c1cccc2c1C(=O)c1ccccc1-2 [N-(2-Phenylphenyl)-9-oxo-9H-fluorene-1-carboxamide],Caspase activity (Ratio),,8.1
same,EC50,"Homo sapiens, T47D, 24 h",1.5 µM
Cc1cccc(NC(=O)c2cccc3c2C(=O)c2ccccc2-3)c1 [N-(3-Methylphenyl)-9-oxo-9H-fluorene-1-carboxamide],Caspase activity (Ratio),,1.3
same,EC50,"Homo sapiens, T47D, 24 h",> 10 µM
